Reference: patent publication US4399132A, “7-Beta-[alpha-syn-methoxyimino-alpha-(2-aminothiazol-4-yl)-aceta mido]-3-[(1,2,3-thiadiazol-5-ylthio)methyl]-3-cephem-4-carboxylic acid and C1 -C6 alkyl derivatives thereof” (American Cyanamid Company, priority 1981, dated 1983)
Values after ≈ are worked out from the molar mass of the structure shown. Where two headings read alike, the source gives them in different places.

System: Staphylococcus aureus
Assay: Mueller-Hinton agar dilution method (MIC)
Format: cell-based
[1] = beta-lactamase negative, strain SSC 79-3, Table II, read-out: Minimal Inhibitory Concentration
[2] = beta-lactamase negative, strain SSC 79-5, Table II, read-out: Minimal Inhibitory Concentration
[3] = beta-lactamase negative, strain SSC 79-7, Table II, read-out: Minimal Inhibitory Concentration
[4] = beta-lactamase negative, strain SSC 79-9, Table II, read-out: Minimal Inhibitory Concentration
[5] = beta-lactamase negative, strain SSC 79-10, Table II, read-out: Minimal Inhibitory Concentration
[6] = beta-lactamase negative, strain SSC 79-11, Table II, read-out: Minimal Inhibitory Concentration
[7] = beta-lactamase negative, strain SSC 79-14, Table II, read-out: Minimal Inhibitory Concentration
[8] = beta-lactamase negative, strain SSC 79-15, Table II, read-out: Minimal Inhibitory Concentration
[9] = beta-lactamase negative, strain SSC 79-17, Table II, read-out: Minimal Inhibitory Concentration
[10] = beta-lactamase positive, strain SSC 79-24, Table II, read-out: Minimal Inhibitory Concentration
[11] = beta-lactamase positive, strain SSC 79-27, Table II, read-out: Minimal Inhibitory Concentration
[12] = beta-lactamase positive, strain SSC 79-28, Table II, read-out: Minimal Inhibitory Concentration
[13] = beta-lactamase positive, strain SSC 79-36, Table II, read-out: Minimal Inhibitory Concentration
[14] = beta-lactamase positive, strain SSC 79-38, Table II, read-out: Minimal Inhibitory Concentration
[15] = beta-lactamase positive, strain SSC 79-39, Table II, read-out: Minimal Inhibitory Concentration
[16] = beta-lactamase positive, strain SSC 79-41, Table II, read-out: Minimal Inhibitory Concentration
[17] = beta-lactamase positive, strain SSC 79-44, Table II, read-out: Minimal Inhibitory Concentration
[18] = beta-lactamase positive, strain SSC 79-47, Table II, read-out: Minimal Inhibitory Concentration

MIC [1] [µg/mL] | MIC [2] [µg/mL] | MIC [3] [µg/mL] | MIC [4] [µg/mL] | MIC [5] [µg/mL] | MIC [6] [µg/mL] | MIC [7] [µg/mL] | MIC [8] [µg/mL] | MIC [9] [µg/mL] | MIC [10] [µg/mL] | MIC [11] [µg/mL] | MIC [12] [µg/mL] | MIC [13] [µg/mL] | MIC [14] [µg/mL] | MIC [15] [µg/mL] | MIC [16] [µg/mL] | MIC [17] [µg/mL] | MIC [18] [µg/mL] | SMILES | further results
2 (≈ 4.68 µM) | 2 (≈ 4.68 µM) | 1 (≈ 2.34 µM) | 1 (≈ 2.34 µM) | 1 (≈ 2.34 µM) | 1 (≈ 2.34 µM) | 2 (≈ 4.68 µM) | 4 (≈ 9.36 µM) | 2 (≈ 4.68 µM) | 16 (≈ 37.4 µM) | 2 (≈ 4.68 µM) | 2 (≈ 4.68 µM) | 2 (≈ 4.68 µM) | 2 (≈ 4.68 µM) | 4 (≈ 9.36 µM) | 4 (≈ 9.36 µM) | 2 (≈ 4.68 µM) | 2 (≈ 4.68 µM) | CO[C@@]1(NC(=O)Cc2cccs2)C(=O)N2C(C(=O)O)=C(COC(N)=O)CS[C@@H]21 [Compound VI, Cefoxitin] | 
2 (≈ 3.84 µM) | 8 (≈ 15.4 µM) | 2 (≈ 3.84 µM) | 2 (≈ 3.84 µM) | 2 (≈ 3.84 µM) | 2 (≈ 3.84 µM) | 4 (≈ 7.69 µM) | 8 (≈ 15.4 µM) | 4 (≈ 7.69 µM) | 32 (≈ 61.5 µM) | 4 (≈ 7.69 µM) | 4 (≈ 7.69 µM) | 4 (≈ 7.69 µM) | 2 (≈ 3.84 µM) | 4 (≈ 7.69 µM) | 4 (≈ 7.69 µM) | 2 (≈ 3.84 µM) | 4 (≈ 7.69 µM) | CO[C@@]1(NC(=O)C(C(=O)O)c2ccc(O)cc2)C(=O)N2C(C(=O)O)=C(CSc3nnnn3C)CO[C@@H]21 (stereo partly drawn) [Compound V, Moxalactam] | 
 |  |  |  |  |  |  |  |  |  |  |  |  |  |  |  |  |  | CO/N=C(\C(=O)N[C@@H]1C(=O)N2C(C(=O)O)=C(COC(C)=O)CS[C@H]12)c1csc(N)n1 [Compound II] | MIC (read-out: Minimal Inhibitory Concentration, beta-lactamase negative, strain SSC 79-3, Table II): 0.5 µg/mL (≈ 1.1 µM); MIC (read-out: Minimal Inhibitory Concentration, beta-lactamase negative, strain SSC 79-5, Table II): 1 µg/mL (≈ 2.2 µM); MIC (read-out: Minimal Inhibitory Concentration, beta-lactamase negative, strain SSC 79-7, Table II): 0.5 µg/mL (≈ 1.1 µM); MIC (read-out: Minimal Inhibitory Concentration, beta-lactamase negative, strain SSC 79-9, Table II): 0.5 µg/mL (≈ 1.1 µM); MIC (read-out: Minimal Inhibitory Concentration, beta-lactamase negative, strain SSC 79-10, Table II): 0.5 µg/mL (≈ 1.1 µM); MIC (read-out: Minimal Inhibitory Concentration, beta-lactamase negative, strain SSC 79-11, Table II): 0.5 µg/mL (≈ 1.1 µM); MIC (read-out: Minimal Inhibitory Concentration, beta-lactamase negative, strain SSC 79-14, Table II): 2 µg/mL (≈ 4.39 µM); MIC (read-out: Minimal Inhibitory Concentration, beta-lactamase negative, strain SSC 79-15, Table II): 2 µg/mL (≈ 4.39 µM); MIC (read-out: Minimal Inhibitory Concentration, beta-lactamase negative, strain SSC 79-17, Table II): 1 µg/mL (≈ 2.2 µM); MIC (read-out: Minimal Inhibitory Concentration, beta-lactamase positive, strain SSC 79-24, Table II): 16 µg/mL (≈ 35.1 µM); MIC (read-out: Minimal Inhibitory Concentration, beta-lactamase positive, strain SSC 79-27, Table II): 1 µg/mL (≈ 2.2 µM); MIC (read-out: Minimal Inhibitory Concentration, beta-lactamase positive, strain SSC 79-28, Table II): 1 µg/mL (≈ 2.2 µM); MIC (read-out: Minimal Inhibitory Concentration, beta-lactamase positive, strain SSC 79-36, Table II): 1 µg/mL (≈ 2.2 µM); MIC (read-out: Minimal Inhibitory Concentration, beta-lactamase positive, strain SSC 79-38, Table II): 1 µg/mL (≈ 2.2 µM); MIC (read-out: Minimal Inhibitory Concentration, beta-lactamase positive, strain SSC 79-39, Table II): 1 µg/mL (≈ 2.2 µM); MIC (read-out: Minimal Inhibitory Concentration, beta-lactamase positive, strain SSC 79-41, Table II): 2 µg/mL (≈ 4.39 µM); MIC (read-out: Minimal Inhibitory Concentration, beta-lactamase positive, strain SSC 79-44, Table II): 1 µg/mL (≈ 2.2 µM); MIC (read-out: Minimal Inhibitory Concentration, beta-lactamase positive, strain SSC 79-47, Table II): 1 µg/mL (≈ 2.2 µM)
0.5 (≈ 0.774 µM) | 2 (≈ 3.1 µM) | 0.5 (≈ 0.774 µM) | 0.5 (≈ 0.774 µM) | 0.5 (≈ 0.774 µM) | 0.25 (≈ 0.387 µM) | 2 (≈ 3.1 µM) | 2 (≈ 3.1 µM) | 1 (≈ 1.55 µM) | 128 (≈ 198 µM) | 1 (≈ 1.55 µM) | 2 (≈ 3.1 µM) | 2 (≈ 3.1 µM) | 1 (≈ 1.55 µM) | 2 (≈ 3.1 µM) | 2 (≈ 3.1 µM) | 1 (≈ 1.55 µM) | 2 (≈ 3.1 µM) | CCN1CCN(C(=O)N[C@@H](C(=O)N[C@@H]2C(=O)N3C(C(=O)O)=C(CSc4nnnn4C)CS[C@H]23)c2ccc(O)cc2)C(=O)C1=O [Compound VII, Cefaperazone] | 
1 (≈ 1.95 µM) | 4 (≈ 7.82 µM) | 1 (≈ 1.95 µM) | 2 (≈ 3.91 µM) | 1 (≈ 1.95 µM) | 1 (≈ 1.95 µM) | 4 (≈ 7.82 µM) | 4 (≈ 7.82 µM) | 2 (≈ 3.91 µM) | 32 (≈ 62.6 µM) | 2 (≈ 3.91 µM) | 2 (≈ 3.91 µM) | 2 (≈ 3.91 µM) | 2 (≈ 3.91 µM) | 4 (≈ 7.82 µM) | 4 (≈ 7.82 µM) | 2 (≈ 3.91 µM) | 2 (≈ 3.91 µM) | CO/N=C(\C(=O)N[C@@H]1C(=O)N2C(C(=O)O)=C(CSc3nnnn3C)CS[C@H]12)c1csc(N)n1 [Compound III, Cefmenoxime] | 
1 (≈ 2.61 µM) | 1 (≈ 2.61 µM) | 0.5 (≈ 1.3 µM) | 1 (≈ 2.61 µM) | 1 (≈ 2.61 µM) | 0.5 (≈ 1.3 µM) | 4 (≈ 10.4 µM) | 1 (≈ 2.61 µM) | 1 (≈ 2.61 µM) | > 128 | 0.5 (≈ 1.3 µM) | 0.5 (≈ 1.3 µM) | 1 (≈ 2.61 µM) | 0.5 (≈ 1.3 µM) | 4 (≈ 10.4 µM) | 1 (≈ 2.61 µM) | 0.5 (≈ 1.3 µM) | 1 (≈ 2.61 µM) | CO/N=C(\C(=O)N[C@@H]1C(=O)N2C(C(=O)O)=CCS[C@H]12)c1csc(N)n1 [Compound IV, Ceftizoxime] | 
